From patent US10336732B2, “1-heterocyclyl isochromanyl compounds and analogs for treating CNS disorders” (Sunovion Pharmaceuticals Inc., priority 2015, dated 2019)

system: mice; assay: Neuropharmacological assay (SmartCube), behavioral signature of compound-treated mice; format: in vivo; conditions: i.p. 15 min before behavioral test, most efficacious dose(s) of 3 doses
Method in brief: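 Read-out is an automated video-based behavioral signature, scored as per-class probabilities (e.g., anxiolytic, antidepressant) against reference compounds. Dosing was i.p. at three doses, 15 min pre-test, in NMP, polyethylene glycol and propylene glycol. Values shown are from the most efficacious dose(s).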

| Compound | AD: ADHD (probability that behavioral signature matches class) | AG: analgesic (probability that behavioral signature matches class) | AX: anxiolytic (probability that behavioral signature matches class) | CE: cognitive enhancer (probability that behavioral signature matches class) | DP: anti-depressant (probability that behavioral signature matches class) | HA: hallucinogen (probability that behavioral signature matches class) | MS: mood stabilizer (probability that behavioral signature matches class) | PS: anti-psychotic (probability that behavioral signature matches class) | SD: sedative hypnotic (probability that behavioral signature matches class) | UN: uncharacterized CNS activity (probability that behavioral signature matches class) |
| --- | --- | --- | --- | --- | --- | --- | --- | --- | --- | --- |
| Cc1cccc2c1[C@@H]([C@H]1CCCN1)OCCC2 [Compound I-104, (R)-2-((S)-9-methyl-1,3,4,5-tetrahydrobenzo[c]oxepin-1-yl)pyrrolidine] | + (LOQ ≤ + <5%) | +++ (25% ≤ +++ <50%) | ++ (5% ≤ ++ <25%) | + (LOQ ≤ + <5%) | ++ (5% ≤ ++ <25%) | + (LOQ ≤ + <5%) | + (LOQ ≤ + <5%) | + (LOQ ≤ + <5%) | ++ (5% ≤ ++ <25%) | ++ (5% ≤ ++ <25%) |
| c1c2c(cc3c1OCO3)[C@@H]([C@@H]1CCCN1)OCC2 [Compound I-53, (S)-2-((S)-7,8-dihydro-5H-[1,3]dioxolo[4,5-g]isochromen-5-yl)pyrrolidine] | + (LOQ ≤ + <5%) | + (LOQ ≤ + <5%) | + (LOQ ≤ + <5%) | + (LOQ ≤ + <5%) | + (LOQ ≤ + <5%) | + (LOQ ≤ + <5%) | + (LOQ ≤ + <5%) | + (LOQ ≤ + <5%) | + (LOQ ≤ + <5%) | + (LOQ ≤ + <5%) |
| N#Cc1cccc2c1[C@@H]([C@@H]1CCCN1)OCC2 [Compound I-37, (S)-1-((S)-pyrrolidin-2-yl)isochroman-8-carbonitrile] | + (LOQ ≤ + <5%) | + (LOQ ≤ + <5%) | ++ (5% ≤ ++ <25%) | + (LOQ ≤ + <5%) | ++ (5% ≤ ++ <25%) | + (LOQ ≤ + <5%) | + (LOQ ≤ + <5%) | ++ (5% ≤ ++ <25%) | + (LOQ ≤ + <5%) | +++ (25% ≤ +++ <50%) |
| c1ccc2c(c1)CCO[C@@H]2[C@H]1CCN1 [Compound I-81, (R)-2-((S)-isochroman-1-yl)azetidine] | + (LOQ ≤ + <5%) | ++ (5% ≤ ++ <25%) | +++ (25% ≤ +++ <50%) | ++ (5% ≤ ++ <25%) | ++ (5% ≤ ++ <25%) | + (LOQ ≤ + <5%) | + (LOQ ≤ + <5%) | ++ (5% ≤ ++ <25%) | +++ (25% ≤ +++ <50%) | + (LOQ ≤ + <5%) |
| c1ccc2c(c1)CCCO[C@H]2[C@@H]1CCCN1 [Compound I-98, (S)-2-((R)-1,3,4,5-tetrahydrobenzo[c]oxepin-1-yl)pyrrolidine] | + (LOQ ≤ + <5%) | + (LOQ ≤ + <5%) | ++ (5% ≤ ++ <25%) | + (LOQ ≤ + <5%) | +++ (25% ≤ +++ <50%) | + (LOQ ≤ + <5%) | ++ (5% ≤ ++ <25%) | +++ (25% ≤ +++ <50%) | ++ (5% ≤ ++ <25%) | + (LOQ ≤ + <5%) |
| c1c2c(cc3c1OCO3)[C@H]([C@@H]1CCCN1)OCC2 [Compound I-54, (S)-2-((R)-7,8-dihydro-5H-[1,3]dioxolo[4,5-g]isochromen-5-yl)pyrrolidine] | + (LOQ ≤ + <5%) | ++ (5% ≤ ++ <25%) | +++ (25% ≤ +++ <50%) | ++ (5% ≤ ++ <25%) | +++ (25% ≤ +++ <50%) | + (LOQ ≤ + <5%) | ++ (5% ≤ ++ <25%) | ++ (5% ≤ ++ <25%) | + (LOQ ≤ + <5%) | + (LOQ ≤ + <5%) |
| Fc1cccc2c1[C@H]([C@@H]1CCCN1)OCCC2 [Compound I-105, (S)-2-((R)-9-fluoro-1,3,4,5-tetrahydrobenzo[c]oxepin-1-yl)pyrrolidine] | + (LOQ ≤ + <5%) | ++ (5% ≤ ++ <25%) | +++ (25% ≤ +++ <50%) | ++ (5% ≤ ++ <25%) | ++ (5% ≤ ++ <25%) | + (LOQ ≤ + <5%) | + (LOQ ≤ + <5%) | ++ (5% ≤ ++ <25%) | ++ (5% ≤ ++ <25%) | ++++ (50% ≤ ++++) |
| N#Cc1cccc2c1[C@H]([C@@H]1CCCN1)OCC2 [Compound I-38, (R)-1-((S)-pyrrolidin-2-yl)isochroman-8-carbonitrile] | + (LOQ ≤ + <5%) | ++ (5% ≤ ++ <25%) | ++ (5% ≤ ++ <25%) | + (LOQ ≤ + <5%) | ++ (5% ≤ ++ <25%) | + (LOQ ≤ + <5%) | + (LOQ ≤ + <5%) | + (LOQ ≤ + <5%) | + (LOQ ≤ + <5%) | + (LOQ ≤ + <5%) |
| c1cc2c(c3c1CCO[C@H]3[C@@H]1CCCN1)OCO2 [Compound I-52, (S)-2-((R)-7,9-dihydro-6H-[1,3]dioxolo[4,5-h]isochromen-9-yl)pyrrolidine] | + (LOQ ≤ + <5%) | ++ (5% ≤ ++ <25%) | ++++ (50% ≤ ++++) | ++ (5% ≤ ++ <25%) | ++ (5% ≤ ++ <25%) | + (LOQ ≤ + <5%) | + (LOQ ≤ + <5%) | ++ (5% ≤ ++ <25%) | + (LOQ ≤ + <5%) | +++ (25% ≤ +++ <50%) |
| c1cc2c(c3c1CCO[C@H]3[C@@H]1CCN1)OCO2 [Compound I-144, (S)-2-((R)-7,9-dihydro-6H-[1,3]dioxolo[4,5-h]isochromen-9-yl)azetidine] | ++ (5% ≤ ++ <25%) | ++ (5% ≤ ++ <25%) | ++ (5% ≤ ++ <25%) | ++ (5% ≤ ++ <25%) | +++ (25% ≤ +++ <50%) | + (LOQ ≤ + <5%) | ++ (5% ≤ ++ <25%) | +++ (25% ≤ +++ <50%) | + (LOQ ≤ + <5%) | +++ (25% ≤ +++ <50%) |
| Cc1cccc2c1[C@@H]([C@@H]1CCCN1)OCCC2 [Compound I-101, (S)-2-((S)-9-methyl-1,3,4,5-tetrahydrobenzo[c]oxepin-1-yl)pyrrolidine] | + (LOQ ≤ + <5%) | + (LOQ ≤ + <5%) | ++ (5% ≤ ++ <25%) | + (LOQ ≤ + <5%) | ++ (5% ≤ ++ <25%) | + (LOQ ≤ + <5%) | + (LOQ ≤ + <5%) | + (LOQ ≤ + <5%) | + (LOQ ≤ + <5%) | + (LOQ ≤ + <5%) |

same assay, conditions: i.p. 15 min before behavioral test, most efficacious dose(s) of 3 doses

| Compound | XG: anxiogenic (probability that behavioral signature matches class) |
| --- | --- |
| Cc1cccc2c1[C@@H]([C@H]1CCCN1)OCCC2 [Compound I-104, (R)-2-((S)-9-methyl-1,3,4,5-tetrahydrobenzo[c]oxepin-1-yl)pyrrolidine] | + (LOQ ≤ + <5%) |
| c1c2c(cc3c1OCO3)[C@@H]([C@@H]1CCCN1)OCC2 [Compound I-53, (S)-2-((S)-7,8-dihydro-5H-[1,3]dioxolo[4,5-g]isochromen-5-yl)pyrrolidine] | + (LOQ ≤ + <5%) |
| N#Cc1cccc2c1[C@@H]([C@@H]1CCCN1)OCC2 [Compound I-37, (S)-1-((S)-pyrrolidin-2-yl)isochroman-8-carbonitrile] | + (LOQ ≤ + <5%) |
| c1ccc2c(c1)CCO[C@@H]2[C@H]1CCN1 [Compound I-81, (R)-2-((S)-isochroman-1-yl)azetidine] | + (LOQ ≤ + <5%) |
| c1ccc2c(c1)CCCO[C@H]2[C@@H]1CCCN1 [Compound I-98, (S)-2-((R)-1,3,4,5-tetrahydrobenzo[c]oxepin-1-yl)pyrrolidine] | + (LOQ ≤ + <5%) |
| c1c2c(cc3c1OCO3)[C@H]([C@@H]1CCCN1)OCC2 [Compound I-54, (S)-2-((R)-7,8-dihydro-5H-[1,3]dioxolo[4,5-g]isochromen-5-yl)pyrrolidine] | + (LOQ ≤ + <5%) |
| Fc1cccc2c1[C@H]([C@@H]1CCCN1)OCCC2 [Compound I-105, (S)-2-((R)-9-fluoro-1,3,4,5-tetrahydrobenzo[c]oxepin-1-yl)pyrrolidine] | + (LOQ ≤ + <5%) |
| N#Cc1cccc2c1[C@H]([C@@H]1CCCN1)OCC2 [Compound I-38, (R)-1-((S)-pyrrolidin-2-yl)isochroman-8-carbonitrile] | + (LOQ ≤ + <5%) |
| c1cc2c(c3c1CCO[C@H]3[C@@H]1CCCN1)OCO2 [Compound I-52, (S)-2-((R)-7,9-dihydro-6H-[1,3]dioxolo[4,5-h]isochromen-9-yl)pyrrolidine] | + (LOQ ≤ + <5%) |
| c1cc2c(c3c1CCO[C@H]3[C@@H]1CCN1)OCO2 [Compound I-144, (S)-2-((R)-7,9-dihydro-6H-[1,3]dioxolo[4,5-h]isochromen-9-yl)azetidine] | + (LOQ ≤ + <5%) |
| Cc1cccc2c1[C@@H]([C@@H]1CCCN1)OCCC2 [Compound I-101, (S)-2-((S)-9-methyl-1,3,4,5-tetrahydrobenzo[c]oxepin-1-yl)pyrrolidine] | + (LOQ ≤ + <5%) |
